Results from patent US20250275976A1, “Methods of Treating Neuroinflammatory Conditions” (Athira Pharma, Inc., priority 2022, published 2025).
Square brackets hold non-standard residues; d marks the D form. Peptide text beside a SMILES is read from it. * marks the point of attachment. Hexanoyl = CCCCCC(=O)*; Ahx = NCCCCCC(=O)O

Assays:
[1] = system: dopaminergic (DA) neurons; test: TH+ neuron number and neurite network after MPP+, rotenone or 6-OHDA injury; type: cell-based, rat (Wistar); parameters: key to Neurite Network (significance vs insult) / TH+ neuron number (significance vs insult): “NS” indicates that the comparison was not statistically significant; “+” indicates that p<0.05
Source text: A range of neurodegenerative disease states converge on neuroinflammatory dysfunction related to mitochondrial impairment and the generation of reactive oxygen species (ROS). Chemical disruption of mitochondrial function by treatment of neuron cultures with 1-methyl-4-phenylpyridium (MPP+) or the pesticide rotenone can lead to activation of inflammatory signaling pathways and death via apoptotic and necrotic mechanisms. Similarly, intracellular oxidation of 6-hydroxydopamine (6-OHDA), which is readily absorbed by dopaminergic neurons in culture, leads to production of ROS within the cell, activation of inflammatory signaling, and cell death. In vitro exposure to these neurotoxins has been successfully used to model the effects of neurodegenerative inflammation and identify therapeutic agents that can protect neurons from these effects.
Midbrain tissue obtained from 15-day old rat (Wistar) embryos was dissected and the ventral mesencephalic region, an area rich in dopaminergic (DA) neurons was removed and dissociated by trypsinization and mechanical passage. Cells were cultured in Neurobasal medium supplemented with B27 (2%), L-glutamine (2 mM), 2% of Penicillin-Streptomycin (PS) solution, 10 ng/mL of Brain-derived neurotrophic factor (BDNF) and 1 ng/mL of Glial-Derived Neurotrophic Factor (GDNF).
Viable cells were seeded at a density of 40,000 cells/well in 96-well plates and maintained at 37° C. in 5% CO2. […] Subsequently, chemical insults were added to the culture in separate plates as follows: 4 uM of MPP+ for 48 hours, 10 nM of rotenone for 24 hours, and 20 uM of 6-OHDA for 24 hours.
Following incubation, cell culture supernatant was replaced by a fixative solution of 4% paraformaldehyde in PBS for 20 minutes and prepared for immunostaining. Fixed cultures were stained with a monoclonal anti-Tyrosine Hydroxylase (TH) antibody (1:10000 in PBS, 2 hrs, RT) followed by incubation with appropriate fluorescent secondary antibody and Hoechst dye. Automated fluorescent imaging, 20 images per well, was performed at 10× magnification. Computation image analysis was used to quantify the total number of TH+ neurons, and the total length of the neurite network. Statistical analysis using a one-way ANOVA followed by Fishers LSD test compared inflammatory insult cultures with and without test compound treatment.

[2] = system: BV2 microglia; test: Nitrite production in LPS-stimulated BV2 microglia (Griess Reagent System); type: cell-based; parameters: key to Inflammatory Readout: Nitrite (significance of reduction): “NS” indicates a non-significant reduction NO production; “++” indicates a p value < 0.005 in Dunnett's multiple comparison; “+++” indicates a p value < 0.0005 in Dunnett's multiple comparison; details: for Inflammatory Readout: Nitrite (significance of reduction): LPS pre-treatment 45 minutes, compound 23.5 hours
Source text: Microglia are the resident immune cells of the brain and, when activated by pathological conditions, promote broad-spectrum neuroinflammation. When activated by toxic exogenous substances, microglia produce excessive reactive oxygen species (ROS), nitric oxide (NO), and proinflammatory cytokines, which further propagates disease pathogenesis. BV2 microglia were used as an in-vitro cell model to evaluate mechanisms relevant to inflammation in the CNS. Upon activation of TLR4 with LPS, microglia are activated and trigger excessive oxidative stress, a process that is partially mediated by AKT phosphorylation (pAKT) and activation. Microglia activation also leads to a range of changes in gene expression.
Compound A19 active metabolite (Compound A19-AM) was investigated for whether it could reduce the inflammatory effect of LPS in microglia. Inflammatory activation of BV2 microglia cells was stimulated by pre-treatment with LPS for 45 minutes, followed by the addition of test compound for 1 hour (pAKT) or 23.5 hours (NO and gene expression panel). For pAKT measurement, cells were lysed and the pAKT measurement was conducted using the HTRF system. For NO production, culture supernatants were collected and assessed for the presence of nitrite, a primary metabolic product of nitric oxide.
Quantification of nitrite production in cell culture supernatants was accomplished using the Griess Reagent System (Promega, G2930). Measurement of pAKT was assessed utilizing Phospho-AKT 1/2/3 (Ser473) […] Cellular Detection Kit (CisBio, 64AKSPEH).
Data analysis was performed via One-way ANOVA with Dunnett's multiple comparisons test compared to LPS-stimulated, vehicle treated cultures using Prism statistical software (GraphPad). Tabular data indicates significance of reduction in the indicated analyte at the indicated dose.

[3] = system: primary culture of both cortical neurons and microglia; test: Microglial activation (Iba1 area) after Aβ1-42 challenge; type: cell-based; parameters: key to Significant decrease in Iba1 area, compared to vehicle treated (Aβ challenge): “NS” indicates a non-significant change in Iba1 area; “+” indicates a p value < 0.05 in Fisher's LSD post-test compared to Aβ challenged
[4] = 6-OHDA injury (20 uM, 24 hrs), dose 0.01 nM
[5] = 6-OHDA injury (20 uM, 24 hrs), dose 0.1 nM
[6] = 6-OHDA injury (20 uM, 24 hrs), dose 1 nM
[7] = 6-OHDA injury (20 uM, 24 hrs), dose 10 nM
[8] = 6-OHDA injury (20 uM, 24 hrs), dose 100 nM
[9] = 6-OHDA injury (20 uM, 24 hrs), dose 1000 nM
[10] = MPP+ injury (4 uM, 48 hrs), dose 0.01 nM
[11] = MPP+ injury (4 uM, 48 hrs), dose 0.1 nM
[12] = MPP+ injury (4 uM, 48 hrs), dose 1 nM
[13] = MPP+ injury (4 uM, 48 hrs), dose 10 nM
[14] = MPP+ injury (4 uM, 48 hrs), dose 100 nM
[15] = MPP+ injury (4 uM, 48 hrs), dose 1000 nM
[16] = Rotenone injury (10 nM, 24 hrs), dose 0.01 nM
[17] = Rotenone injury (10 nM, 24 hrs), dose 0.1 nM
[18] = Rotenone injury (10 nM, 24 hrs), dose 1 nM
[19] = Rotenone injury (10 nM, 24 hrs), dose 10 nM
[20] = Rotenone injury (10 nM, 24 hrs), dose 100 nM
[21] = Rotenone injury (10 nM, 24 hrs), dose 1000 nM

SMILES: CCCCCC(=O)N[C@@H](Cc1ccc(O)cc1)C(=O)N[C@H](C(=O)NCCCCCC(N)=O)[C@@H](C)CC [Compound A19 active metabolite, dihexa] (Hexanoyl-Tyr-Ile-[Ahx]-NH2)
- Neurite Network (significance vs insult) [1, 4]: NS
- TH+ neuron number (significance vs insult) [1, 4]: NS
- Neurite Network (significance vs insult) [1, 5]: NS
- TH+ neuron number (significance vs insult) [1, 5]: NS
- Neurite Network (significance vs insult) [1, 6]: NS
- TH+ neuron number (significance vs insult) [1, 6]: + (“+” indicates that p<0.05)
- Neurite Network (significance vs insult) [1, 7]: + (“+” indicates that p<0.05)
- TH+ neuron number (significance vs insult) [1, 7]: + (“+” indicates that p<0.05)
- Neurite Network (significance vs insult) [1, 8]: + (“+” indicates that p<0.05)
- TH+ neuron number (significance vs insult) [1, 8]: + (“+” indicates that p<0.05)
- Neurite Network (significance vs insult) [1, 9]: + (“+” indicates that p<0.05)
- TH+ neuron number (significance vs insult) [1, 9]: + (“+” indicates that p<0.05)
- Neurite Network (significance vs insult) [1, 10]: NS
- TH+ neuron number (significance vs insult) [1, 10]: NS
- Neurite Network (significance vs insult) [1, 11]: NS
- TH+ neuron number (significance vs insult) [1, 11]: NS
- Neurite Network (significance vs insult) [1, 12]: NS
- TH+ neuron number (significance vs insult) [1, 12]: + (“+” indicates that p<0.05)
- Neurite Network (significance vs insult) [1, 13]: NS
- TH+ neuron number (significance vs insult) [1, 13]: + (“+” indicates that p<0.05)
- Neurite Network (significance vs insult) [1, 14]: + (“+” indicates that p<0.05)
- TH+ neuron number (significance vs insult) [1, 14]: + (“+” indicates that p<0.05)
- Neurite Network (significance vs insult) [1, 15]: + (“+” indicates that p<0.05)
- TH+ neuron number (significance vs insult) [1, 15]: + (“+” indicates that p<0.05)
- Neurotoxic impact of inflammatory-relevant chemical insults (result in words) ([1]; MPP+, rotenone, 6-OHDA): reduces the neurotoxic impact of inflammatory-relevant chemical insults
- Neurite Network (significance vs insult) [1, 16]: NS
- TH+ neuron number (significance vs insult) [1, 16]: NS
- Neurite Network (significance vs insult) [1, 17]: NS
- TH+ neuron number (significance vs insult) [1, 17]: NS
- Neurite Network (significance vs insult) [1, 18]: NS
- TH+ neuron number (significance vs insult) [1, 18]: NS
- Neurite Network (significance vs insult) [1, 19]: NS
- TH+ neuron number (significance vs insult) [1, 19]: + (“+” indicates that p<0.05)
- Neurite Network (significance vs insult) [1, 20]: + (“+” indicates that p<0.05)
- TH+ neuron number (significance vs insult) [1, 20]: + (“+” indicates that p<0.05)
- Neurite Network (significance vs insult) [1, 21]: + (“+” indicates that p<0.05)
- TH+ neuron number (significance vs insult) [1, 21]: + (“+” indicates that p<0.05)
- Production of nitrite (result in words) ([2]; LPS-stimulated BV2): significantly reduced
- Inflammatory Readout: Nitrite (significance of reduction) ([2]; dose 0.01 nM): ++ (“++” indicates a p value < 0.005 in Dunnett's multiple comparison)
- Inflammatory Readout: Nitrite (significance of reduction) ([2]; dose 1 nM): +++ (“+++” indicates a p value < 0.0005 in Dunnett's multiple comparison)
- Inflammatory Readout: Nitrite (significance of reduction) ([2]; dose 10 nM): NS
- Significant decrease in Iba1 area, compared to vehicle treated (Aβ challenge) ([3]; 100 nM, Pre-(60 min) and Co- Aβ challenge): + (“+” indicates a p value < 0.05 in Fisher's LSD post-test compared to Aβ challenged)
- Significant decrease in Iba1 area, compared to vehicle treated (Aβ challenge) ([3]; 100 nM, Pre-(60 min) and post-(24 h) Aβ challenge): NS
- Significant decrease in Iba1 area, compared to vehicle treated (Aβ challenge) ([3]; 100 nM, Pre-(60 min), Co-, and post-(24 h) Aβ challenge): + (“+” indicates a p value < 0.05 in Fisher's LSD post-test compared to Aβ challenged)
- Significant decrease in Iba1 area, compared to vehicle treated (Aβ challenge) ([3]; 1 μM, Pre-(60 min) and Co- Aβ challenge): + (“+” indicates a p value < 0.05 in Fisher's LSD post-test compared to Aβ challenged)
- Significant decrease in Iba1 area, compared to vehicle treated (Aβ challenge) ([3]; 1 μM, Pre-(60 min) and post-(24 h) Aβ challenge): NS
- Significant decrease in Iba1 area, compared to vehicle treated (Aβ challenge) ([3]; 1 μM, Pre-(60 min), Co-, and post-(24 h) Aβ challenge): + (“+” indicates a p value < 0.05 in Fisher's LSD post-test compared to Aβ challenged)
- Significant decrease in Iba1 area, compared to vehicle treated (Aβ challenge) ([3]; 60 min pre-Aβ challenge, concentration not given): + (“+” indicates a p value < 0.05 in Fisher's LSD post-test compared to Aβ challenged)
- Microglial activation, as measured by Iba1 area (result in words) ([3]; Aβ1-42 challenge 72 hours): significantly reduced microglial activation
